What all share (format): functional, cell-based
For one test, the system named is HCT-116. As to the kind of experiment: Cytotoxicity against human HCT116 cells by SRB assay.
For another test, the system named is A549. As to the kind of experiment: Cytotoxicity against human A549 cells by SRB assay.
A further test concerns HT-1080. As to the kind of experiment: Cytotoxicity against human HT1080 cells by SRB assay.

Turning to `COc1cc2c3c(c4ccc(OC(C)C)cc4c2cc1OC)CN1CCCC1C3` (stereo not given), the IC50 with HCT-116 was determined as 0.0192 µM; in the test on A549 it was 0.0405 µM; in the test with HT-1080, 0.0236 µM.
Consider `COc1ccc2c3c(c4cc(O)c(OC)cc4c2c1)CC1CCCN1C3` (stereo not given), for which the IC50 is 0.0683 µM in the test on HCT-116, over 0.1 µM in the test with A549 and 0.0726 µM in the test on HT-1080.
For `COc1ccc2c3c(c4cc5c(cc4c2c1)OCO5)CC1CCCN1C3` (stereo not given), the results for the 50% inhibitory concentration (IC50) in the test with HCT-116, in the test on A549 and in the test on HT-1080 were 0.364 µM, 0.747 µM and 0.453 µM, respectively.
`COc1cc2c3c(c4ccc(O)cc4c2cc1OC)CN1CCCC1C3` (stereo not given): the IC50 in the test on HCT-116 worked out at 0.0011 µM; in the test with A549, 0.0014 µM; in the test with HT-1080 it was 0.0011 µM.
In the case of `COc1cc2c3c(c4ccccc4c2cc1OC)CN1CCCC1C3` (stereo not given), the IC50 was 0.0493 µM in the test with HCT-116, over 0.1 µM with A549 and 0.0591 µM with HT-1080.
Take `COc1ccc2c3c(c4cc(OC)c(OC(C)C)cc4c2c1)CC1CCCN1C3` (stereo not given): the IC50 in the test with HCT-116 is 0.0247 µM; in the test on A549 it was 0.0539 µM; in the test with HT-1080 it was 0.0374 µM.
In the case of `COc1ccc2c3c(c4cc(OC)c(O)cc4c2c1)CC1CCCN1C3` (stereo not given), the IC50 with HCT-116 was found to be 0.0214 µM; in the test with A549 it was 0.0498 µM; in the test with HT-1080, 0.0198 µM.
As to `COc1ccc2c3c(c4cc(OC(C)C)c(OC)cc4c2c1)CC1CCCN1C3` (stereo not given), the IC50 in the test with HCT-116 was 0.783 µM; in the test with A549, over 1 µM; in the test on HT-1080 it was over 1 µM.
`COc1ccc2c3c(c4cc(OC)c(OC)cc4c2c1)CC1CCCN1C3` (stereo not drawn) [(+/-)-ANTOFINE]: the IC50 was found to be 0.0294 µM in the test with HCT-116, 0.0251 µM in the test on A549 and 0.0275 µM in the test on HT-1080.
`COc1ccc2c3c(c4cc(OC)c(OC)cc4c2c1)C[C@H]1CCCN1C3` [(-)-ANTOFINE]: the IC50 with HCT-116 came to 0.0099 µM; in the test on A549, 0.0104 µM; in the test on HT-1080, 0.0096 µM.

Source of the values: ChEMBL document CHEMBL1146265, “Synthesis and structure-activity studies of antofine analogues as potential anticancer agents” (Bioorg Med Chem Lett, 2007).
